Converted amounts (≈) assume the structure as drawn. Like-named read-outs stand apart in the source and are kept apart here.
Experiments:
[1] = Kinetic solubility; assay type: physicochemical; details: Dulbecco's phosphate buffer saline (DPBS), aqueous buffer, kinetic from dmso stock, DPBS pH 7.4, 25° C., 200 μM test compound
Method in brief: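 Compound from 10 mM DMSO stock diluted to 200 μM final in DPBS pH 7.4 and, separately, in DMSO, in duplicate. Shaken 16 h at 25 °C, then centrifuged 20 min at 25 °C. Supernatant analysed by HPLC.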

[2] = system: Human Heme Oxygenase-1 (HMOX-1); experiment: ELISA assay to measure human heme oxygenase-1 (HMOX-1) in HepG2 lysate; assay type: cell-based
Method in brief: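 Treated HepG2 cells were lysed in PBS with 0.5% Triton X100, 1 mM EDTA and protease inhibitors, and lysates were diluted 1:20. HO-1 was measured by sandwich ELISA (biotinylated detection antibody, streptavidin-HRP, chemiluminescence) at room temperature against a standard curve from 20 ng/ml. EC50 and fold change were expressed relative to DMSO control.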

[3] = human HMOX1 protein level in HepG2 lysate, * = average of 2 or more EC50 determinations, NA = Not Active, read-out: EC50

Cn1c(Nc2nc3ccccc3o2)nc2cc(C(=O)NCCOCCO)ccc21 [Example 17, 2-(benzo[d]oxazol-2-ylamino)-N-(2-(2-hydroxyethoxy)ethyl)-1-methyl-1H-benzo[d]imidazole-5-carboxamide]
solubility at 16 h [1]: 11.6 µM (≈ 4.59 µg/mL)
EC50 ([2]; HepG2, human HMOX1, as listed in Table 5, read-out: HMOX1 EC50 h): 1400 nM
EC50 [2, 3]: 1400 nM

COCCNC(=O)c1ccc2c(c1)nc(Nc1nc3ccc(OCCOC)cc3o1)n2C [Example 56, 2-((6-(2-methoxyethoxy)benzo[d]oxazol-2-yl)amino)-N-(2-methoxyethyl)-1-methyl-1H-benzo[d]imidazole-5-carboxamide]
solubility at 16 h [1]: 9.7 µM (≈ 4.26 µg/mL)
EC50 [2, 3]: 1400 nM

Source: patent US10766888B1, “HMOX1 inducers” (Mitobridge Inc., priority 2019, dated 2020)
